Among the data in PubChem BioAssay (NCI) are GI50 and TGI values, retold here.

What all share (test): DTP human tumour cell line panel, 48 h
In assay [1] the test system is IGROV1 ovarian.
In assay [2] the test system is TK-10 renal.
The test system of assay [3] is HOP-62 NSCLC.
In assay [4] the test system is SNB-19 CNS.
Assay [5] concerns SN12C renal.
In assay [6] the test system is KM12 colon.
Assay [7] relates to OVCAR-8 ovarian.
Assay [8] relates to SK-MEL-28 melanoma.
Assay [9] has as its system UO-31 renal.
In assay [10] the test system is HCT-116 colon.

By GI50 is commonly meant the concentration giving 50% growth inhibition. The TGI is the concentration giving total growth inhibition.

The structures appear in SMILES notation. Where “and” joins values, the source holds several entries; their conditions need not be identical. Equal entries are not always repeated.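 Each compound was tested at five concentrations against cells in 96-well plates for 48 hours. GI50: concentration for 50% inhibition of growth. The concentration for full growth arrest is given as TGI.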 Bounds are passed on as bounds.

With `O=C(NC(Cc1ccccc1)C(=O)CCl)OCc1ccccc1` (configuration not stated), the GI50 is 2.98 µM in [1]; 2.58 µM in assay [2]; 5.55 µM in assay [8]; 3.91 µM in assay [9]; 1.65 µM in assay [10]. The TGI in assay [1] is 13.6 µM and 27.3 µM; in assay [2], 9.43 µM and 28.4 µM; in assay [3] it was 30.6 µM and 29.4 µM; in [4] it was 25.3 µM and 25.1 µM; in assay [5], 17.7 µM and 20.3 µM; in [6] it was 22.2 µM and 21.7 µM. The TGI in [7] is 15 µM and 17.6 µM; in [8] it was 19.3 µM and 25.3 µM; in assay [9], 16.4 µM and 25.6 µM; in assay [10] it was 3.32 µM and 26.5 µM.
Turning to `[Au+].c1c[n-]cn1.c1ccc([PH+](c2ccccc2)c2ccccc2)cc1`, the GI50 in assay [1] is 2.02 µM; in assay [2], 2.66 µM; in assay [3], 6.24 µM; in assay [4], 7.28 µM; in assay [5], 10.3 µM; in [6], 14.5 µM. Further, the GI50 is 9.28 µM in assay [7], 2.29 µM in assay [8], 8.36 µM in assay [9] and 5.19 µM in assay [10]. Further, the TGI in assay [1] is 13.7 µM; in assay [2], 6.46 µM; in [3], 43 µM; in [4], 18 µM; in assay [5], 27.4 µM; in assay [6], 37.9 µM. The TGI came to 37.1 µM in assay [7], 6.87 µM in [8], 19.4 µM in [9] and 14.6 µM in [10].
On to `O=C1Nc2c(ccc(Cl)c2Cl)/C1=C\c1cc(C(F)(F)F)cc(C(F)(F)F)c1`, for which the GI50 in assay [1] is 0.222 µM; in [2], 4.37 µM; in assay [3] it was 7.04 µM; in assay [4] it was 5.7 µM; in [5] it was 3.59 µM; in assay [6], 1.42 µM. In addition, the GI50 was 5.75 µM in assay [7], 2.1 µM in assay [8], 0.485 µM in [9] and 1.41 µM in assay [10]. The TGI in assay [1] worked out at 3.52 µM; in assay [2] it was 13 µM; in assay [3], 14.4 µM; in [4], 19.3 µM; in assay [5], 10.9 µM; in assay [6], 5.53 µM. Moreover, the TGI was 16 µM in assay [7], 7.61 µM in assay [8], 8.74 µM in assay [9] and 5.07 µM in assay [10].
As to `O=C(Nc1nc(-c2ccccc2Cl)cs1)c1cc(-c2ccc(Cl)cc2)nc2ccc(Cl)cc12`, the GI50 was 2.99 µM in assay [1]; 15 µM in [2]; 3.73 µM in assay [3]; 3.79 µM in [4]; 0.895 µM in assay [5]; 3.5 µM in assay [6]. Besides, the GI50 was 1.19 µM in [7], 5.61 µM in [8], 2.46 µM in [9] and 0.395 µM in assay [10]. Besides, the concentration for total growth inhibition (TGI) in assay [1] is above 100 µM; in assay [2], above 100 µM; in assay [3] it was 45 µM; in assay [4], 67.2 µM; in assay [5] it was 76.9 µM; in [6], 69.5 µM. Also, the TGI was 16.2 µM in assay [7], above 100 µM in assay [8], 52.6 µM in assay [9] and 13.2 µM in assay [10].
With `COc1cc(/C=C2\CC3C4CCC5=CC(=O)CC[C@]5(C)C4CC[C@]3(C)C2=O)ccc1OCCN1CCCCC1` (some centres not stated), the GI50 in assay [1] was 11.2 µM; in [2] it was 2.45 µM; in assay [3] it was 2.36 µM; in assay [4], 6.16 µM; in [5], 2.79 µM; in assay [6] it was 1.69 µM. The GI50 is 15.9 µM in assay [7], 2.59 µM in assay [8], 7.87 µM in assay [9] and 2.11 µM in [10]. Moreover, the TGI in assay [1] was above 100 µM; in [2], 6.96 µM; in [3], 6.66 µM; in assay [4] it was 31 µM; in assay [5], 9.56 µM; in assay [6], 3.52 µM. Further, the TGI in assay [7] was 62.5 µM; in [8], 6.13 µM; in assay [9], above 100 µM; in assay [10], 5.75 µM.
Take `COc1c(OC)c(OC)c(-c2cc(=O)c3c(OC)c(OC)c(OC)c(OC)c3o2)c(OC)c1OC`: the total growth inhibition concentration (TGI) in assay [1] is 64.2 µM; in assay [2], 85.3 µM; in assay [3], above 100 µM; in assay [4] it was above 100 µM; in [5], above 100 µM; in [7] it was above 100 µM. Moreover, the TGI is above 100 µM in [8], above 100 µM in [9] and 44.9 µM in [10].
Take `O=c1sc(-c2nc3ccccc3[nH]2)c(/N=C/c2ccccc2)n1-c1ccccc1`: the TGI in [1] is above 100 µM; in [2] it was above 100 µM; in assay [3], 73.7 µM; in assay [4] it was above 100 µM; in [5], above 100 µM; in assay [6], above 100 µM. The TGI in assay [7], in assay [8] and in [9] was above 100 µM in each case.
Consider `O=C(O)C1C2CCC(O2)C1C(=O)NCc1cccnc1` (configuration not stated), for which the TGI in assay [2], in [3], in assay [4], in assay [5], in assay [6] and in [8] was above 100 µM throughout. Moreover, the TGI in [9] and in assay [10] was above 100 µM in each case.
Consider `CCOC(=O)CP(=S)(S)c1ccccc1` (configuration not stated), for which the TGI in assay [2], in assay [3], in assay [4], in assay [5], in assay [6] and in assay [7] was above 100 µM throughout. Further, the TGI in assay [8] and in assay [9] was above 100 µM in each case.
For the molecule `COC(=O)C1=Cc2cn(S(=O)(=O)c3ccc(C)cc3)c3cccc(c23)C(C=C(C)C)N1C(C)=O` (configuration not stated), the TGI in assay [1], in assay [2], in [3], in [4], in [5] and in [6] was above 100 µM in each case. Moreover, the concentration for total growth inhibition (TGI) in assay [7], in assay [9] and in [10] was above 100 µM in each case.
`O=C(O)c1ccccc1C1c2ccc(Cl)cc2Oc2cc(Cl)ccc21`: the TGI in [1], in [2], in [3], in [4], in assay [5] and in [6] was above 100 µM each time. For the same molecule, the concentration for total growth inhibition (TGI) in assay [7], in assay [8] and in [9] was above 100 µM each time.
As for `COC1C(C)OC(OC2CC(C)(O)Cc3cc4c(c(O)c32)C(=O)c2c(O)cc3c(c2C4=O)OC2OC3(C)C(O)C(N(C)C)C2O)C(OC)C1(C)OC` (configuration not stated), the TGI in [1] is 3.47 µM and 5.05 µM; in assay [2], 0.781 µM; in [3], 0.921 µM and 0.347 µM; in assay [5], 6.12 µM and 6.56 µM; in [7], 2.79 µM and 1.37 µM. Besides, the GI50 in [2] was 0.109 µM; in [4], 0.055 µM and 0.0181 µM; in assay [6], 0.0639 µM and 0.0289 µM; in assay [7] it was 0.0416 µM and 0.0176 µM; in assay [8] it was 0.0687 µM and 0.0334 µM; in [10], 0.00273 µM and 0.0132 µM.
As to `CCCCC1N=CNc2c1ccc1c2[nH]c2ccccc21` (configuration not stated), the TGI in assay [1] was 8.18 µM; in assay [2] it was 10.9 µM; in assay [3], 9.97 µM; in [4], 24.9 µM; in assay [5], 7.8 µM; in [6] it was 41.8 µM. Besides, the TGI amounted to 24.6 µM in assay [8], 21.9 µM in [9] and 3.32 µM in assay [10].
In the case of `NNC(=S)NN/C=C(\C=Nc1ccccc1)[N+](=O)[O-]`, the TGI in [1], in [2], in assay [3], in assay [4], in assay [5] and in [7] was above 100 µM each time. Besides, the TGI in assay [8] and in assay [10] was above 100 µM each time.
As to `COc1ccc(NC(=O)C2=CC(=O)c3ccc(O)cc3C2=O)c(OC)c1`, the TGI in [1], in assay [2], in assay [3], in [4], in assay [5] and in assay [6] was above 100 µM in each case. Moreover, the TGI in [7], in assay [8] and in assay [10] was above 100 µM each time.
With `CN(CC1NCCCC1O)C12CC3CC(CC(C3)C1)C2` (configuration not stated), the TGI in [1], in assay [2], in assay [3], in assay [4], in assay [5] and in assay [6] was above 100 µM throughout. Besides, the TGI in assay [7] and in assay [9] was above 100 µM each time.
`COc1cc2oc(-c3ccc(O)cc3)cc(=O)c2c(OC)c1O`: the TGI in [1], in assay [2], in assay [3], in [4], in assay [5] and in assay [7] was above 100 µM throughout. The TGI in assay [8], in [9] and in [10] was above 100 µM throughout.
As for `c1ccc(N2N=NC3C4CC(C5c6ccccc6C45)C32)cc1` (configuration not stated), the TGI in assay [1], in assay [2], in assay [3], in assay [4], in assay [5] and in assay [6] was above 100 µM in each case. Moreover, the values for the TGI in [7], in assay [9] and in [10] were above 100 µM, 72.1 µM and 82.7 µM, respectively.
Regarding `C[C@H]1CCC2C(CN3CCCCC3)C(=O)OC2[C@]2(C)C(=O)CC(N3CCCCC3)C12O` (some centres not stated), the total growth inhibition concentration (TGI) in assay [1] was 84.1 µM; in assay [2] it was 34.3 µM; in assay [4], 73 µM; in assay [5] it was 14.8 µM; in assay [6], 12.3 µM; in [8] it was 32.9 µM. Besides, the TGI in assay [9] was 27.9 µM; in [10], 12 µM.
In the case of `COC(=O)Cc1nn2c(nc1=O)sc1ccc3ccccc3c12`, the TGI in assay [1], in assay [3], in [4], in assay [5], in assay [6] and in assay [7] was above 100 µM throughout. The TGI in assay [8], in [9] and in [10] was above 100 µM each time.
Regarding `O=[N+]([O-])c1cccc([I+]c2ccccc2)c1`, the GI50 in assay [1] is 5.29 µM; in assay [3] it was 5.19 µM; in assay [4], 13.4 µM; in assay [5], 10.4 µM; in [6] it was 12 µM; in assay [7] it was 4.37 µM. Also, the GI50 in assay [8] was 10.5 µM; in assay [9], 8.71 µM; in assay [10], 7.05 µM. Also, the TGI was 27 µM in [1]; 18.8 µM in assay [3]; 26.5 µM in assay [4]; 22.8 µM in assay [5]; 26.1 µM in assay [6]; 17.6 µM in assay [7]. In addition, the figures for the TGI in assay [8], in assay [9] and in [10] were 23.2 µM, 85.5 µM and 24.2 µM, respectively.
For `CC(C)OC(=O)c1cccnc1/C=N/O`, the TGI in [1], in assay [2], in assay [3], in [4], in assay [5] and in [6] was above 100 µM throughout. Further, the TGI in [7], in assay [9] and in assay [10] was above 100 µM in each case.
Take `Cc1ccnc(NC(c2ccccc2)c2ccc3cccnc3c2O)c1` (configuration not stated): the GI50 is 2.33 µM in assay [1]; 4.41 µM in assay [3]; 6.28 µM in assay [4]; 5.27 µM in [5]; 4.15 µM in assay [6]; 3.23 µM in [7]. In addition, the GI50 is 13.8 µM in assay [8], 1.3 µM in assay [9] and 2.94 µM in assay [10]. In addition, the TGI in assay [1] was 23.3 µM; in assay [3], 96.2 µM; in assay [4], above 100 µM; in [5] it was above 100 µM; in assay [6] it was above 100 µM; in [7], 16.3 µM. In addition, the TGI was above 100 µM in [8], 14.6 µM in assay [9] and 14.5 µM in assay [10].
